This note sets out measurements from ChEMBL document CHEMBL5608208, “Design, synthesis of griseofamine A derivatives and development of potent antibacterial agents against MRSA” (Eur J Med Chem, 2024).

The structures appear in SMILES notation. Values after ≈ are worked out from the molar mass of the structure shown. Active and inactive are the calls of the source.

Usually MIC stands for the smallest concentration in the dilution series that meets the test's criterion for growth inhibition. As a reminder, the MBC is the smallest concentration meeting the test's criterion for killing. Low readings indicate more potent killing, high ones less potent killing. In general, MRT inf refers to a mean duration of stay, worked out from the concentration-time curve. By Cmax is commonly meant the maximum level reached in the sampled fluid or tissue.

Data set [1] concerns Staphylococcus aureus. Nature of the data set: Antibacterial activity against Staphylococcus aureus ATCC 29213 incubated for 18 hrs by serial two-fold dilution method. It counts as functional.
For data set [2], the system named is Staphylococcus aureus. Nature of the data set: Potency index, ratio of vancomycin MIC to test compound MIC for antibacterial activity against methicillin resistant Staphylococcus aureus ATCC 33592. It counts as functional.
The subject of data set [3] is Staphylococcus aureus. The data set is described as follows: Potency index, ratio of griseofamine A MIC to test compound MIC for antibacterial activity against methicillin resistant Staphylococcus aureus ATCC 43300. It counts as functional.
For data set [4], the system named is Staphylococcus aureus. Nature of the data set: Potency index, ratio of vancomycin MIC to test compound MIC for antibacterial activity against methicillin resistant Staphylococcus aureus ATCC 43300. It is filed as functional.
The test system of data set [5] is Staphylococcus epidermidis. Nature of the data set: Bactericidal activity against Staphylococcus epidermidis ATCC 12228 incubated for 18 to 24 hrs. It is filed as functional. As to conditions: time 18-24 hrs.
The test system of data set [6] is Staphylococcus aureus. Nature of the data set: Bactericidal activity against methicillin resistant Staphylococcus aureus ATCC 43300 incubated for 18 to 24 hrs. It is filed as functional. Conditions: time 18-24 hrs.
Data set [7] concerns Staphylococcus aureus. The data set is described as follows: Bactericidal activity against methicillin resistant Staphylococcus aureus ATCC 33592 at 2.5 times MIC measured after 2 to 24 hrs by time-kill kinetics assay. As to conditions: time 2-24 hrs. It counts as functional.
Data set [8] concerns Staphylococcus aureus. Nature of the data set: Drug resistance development in Staphylococcus aureus ATCC 29213 assessed as increase in MIC value measured after 7 passages by broth microdilution method. It counts as functional, organism-based. Background: Dilution methods test growth across graded concentrations, often in twofold steps.
Data set [9] in a line: Hemolytic activity in rabbit RBC assessed as hemolysis rate at 23.5 ug/ml incubated for 1 hr by microplate reader assay. It is filed as toxicity, cell-based, Oryctolagus cuniculus, Erythrocyte. Conditions: rabbit red blood cells (erythrocytes), at 23.5 µg/mL, read-out: Activity.
A short description of data set [10]: Cytotoxicity against mouse MLg cells assessed as survival rate at 23.5 ug/ml incubated for 24 hrs by MTS method. It counts as toxicity, cell-based. Conditions: at 23.5 µg/mL, read-out: Survival. Background: Formazan colour is commonly taken as a measure of viable cells.
Data set [11] can be described thus: MRT(0 to infinity) in ICR mouse at 5 mg/kg, po. It counts as ADME, organism-based. Conditions: in vivo.
A short description of data set [12]: Cmax in ICR mouse at 5 mg/kg, po. As to conditions: in vivo. It is filed as ADME, organism-based.
Data set [13] in a line: Volume of distribution in ICR mouse at 5 mg/kg, po. It counts as ADME, organism-based. As to conditions: in vivo.
Data set [14] relates to Staphylococcus aureus. Nature of the data set: Antibacterial activity against methicillin resistant Staphylococcus aureus ATCC 43300 infected in ip dosed ICR mouse systemic infection model pretreated with bacteria for 30 mins followed by compound addition and measured for 7 days. It counts as functional, organism-based. Conditions: dose 1.25-5 mg/kg, time 7.0 day.
Data set [15] has as its system Staphylococcus aureus. Nature of the data set: Antibacterial activity against methicillin resistant Staphylococcus aureus ATCC 43300 infected in ICR mouse systemic infection model at 5 mg/kg, ip pretreated with bacteria for 30 mins followed by compound addition and measured for 7 days. Conditions: time 7 day. It counts as functional.
Data set [16] relates to Staphylococcus aureus. The data set is described as follows: Antibacterial activity against methicillin resistant Staphylococcus aureus ATCC 43300 infected in ICR mouse systemic infection model assessed as reduction in bacterial burden in lung at 2.5 mg/kg, ip pretreated with bacteria for 30 mins followed by compound addition and measured for 7 days. It is filed as functional, organism-based. Conditions: time 7.0 day.

The test system of data set [17] is Staphylococcus aureus. The data set is described as follows: Antibacterial activity against methicillin resistant Staphylococcus aureus ATCC 33592 assessed as increase in cell aggregation at MIC incubated for 1 to 6 hrs by SEM analysis. It counts as functional, organism-based. Conditions: time 1-6 hrs.

On to `C/C(O)=C1\C(=O)[C@@H]2Cc3c([nH]c4ccccc34)[C@@H](c3ccc(-c4cc(F)cc(F)c4)cc3)N2C1=O`, for which the MIC in the data set with Staphylococcus aureus [1] was determined as 0.031 µg/mL (≈ 0.0659 µM). The Ratio with Staphylococcus aureus [2] was 8; with Staphylococcus aureus [3], 128; with Staphylococcus aureus [4] it was 8. The values for the MBC (in data set [5]; against Staphylococcus aureus [6]) were 0.25 µg/mL (≈ 0.531 µM) and 1 µg/mL (≈ 2.13 µM), respectively. Besides, the Activity was 100% with Staphylococcus aureus [7], “Dose-Dependent Effect” in the data set on Staphylococcus aureus [14] and 87.5% in the data set with Staphylococcus aureus [15]. The outcome in the data set on Staphylococcus aureus [8] was inactive. Further, the hemolysis at 1 h, 23.5 ug/ml in data set [9] is < 5%. Moreover, the viability at 24 h, 23.5 ug/ml in [10] was > 80%. The compound also displayed an MRT inf in [11] of 12.7 h. Besides, in [12], the highest level (Cmax) was 233 ng/mL. In data set [13], this compound came in with a Vd of 21.714 L/kg. The result in the data set on Staphylococcus aureus [16] and in the data set on Staphylococcus aureus [17] was Active.
